# Data published in ChEMBL document CHEMBL3632483, “Synthesis and pharmacological evaluation of piperidine (piperazine)-substituted benzoxazole derivatives as multi-target antipsychotics” (Bioorg Med Chem Lett, 2015).
# pIC50, pKi: −log10 of the molar value.
# Biological target: D(2) dopamine receptor (Rattus norvegicus, UniProt P61169)
# Test: Displacement of [3H]spiperone from dopaminergic D2 receptor in rat striatum homogenates after 60 mins by liquid scintillation counting
# Conditions: not given
# D(2) dopamine receptor, sequence (P61169 whole entry): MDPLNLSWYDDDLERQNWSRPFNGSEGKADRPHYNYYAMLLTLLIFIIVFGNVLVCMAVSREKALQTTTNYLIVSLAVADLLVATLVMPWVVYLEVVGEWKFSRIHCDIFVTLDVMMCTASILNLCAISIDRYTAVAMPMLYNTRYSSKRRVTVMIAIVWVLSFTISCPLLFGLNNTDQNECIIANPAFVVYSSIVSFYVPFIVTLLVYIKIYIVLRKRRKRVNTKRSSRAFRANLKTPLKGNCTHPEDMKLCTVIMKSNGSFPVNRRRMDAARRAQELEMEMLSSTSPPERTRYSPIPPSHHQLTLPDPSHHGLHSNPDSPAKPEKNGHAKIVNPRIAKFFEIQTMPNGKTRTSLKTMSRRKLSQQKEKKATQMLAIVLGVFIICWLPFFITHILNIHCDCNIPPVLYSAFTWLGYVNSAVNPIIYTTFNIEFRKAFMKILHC
row,Structure (SMILES),pKi
1,c1ccc2oc(-c3ccc(OCCCN4CCN(c5nsc6ccccc56)CC4)cc3)nc2c1,6.06
2,Clc1cccc(N2CCN(CCCOc3ccc(-c4nc5ccccc5o4)cc3)CC2)c1Cl,< 5.00
3,O=C(c1ccc(F)cc1F)C1CCN(CCCOc2ccc(-c3nc4ccccc4o3)cc2)CC1,6.39
4,c1ccc2oc(-c3ccc(OCCCN4CCC(c5nc6ccccc6o5)CC4)cc3)nc2c1,< 5.00
5,Fc1ccc2c(C3CCN(CCCOc4cccc(-c5nc6ccccc6o5)c4)CC3)noc2c1,< 5.00
6,Cc1ccc2oc(-c3ccc(OCCCN4CCC(c5noc6cc(F)ccc56)CC4)cc3)nc2c1,< 5.00
7,Fc1ccc2c(C3CCN(CCCCOc4ccc(-c5nc6ccccc6o5)cc4)CC3)noc2c1,5.66
8,Fc1ccc2c(C3CCN(CCCOc4ccc(-c5nc6cc(Cl)ccc6o5)cc4)CC3)noc2c1,6.18
9,c1ccc(N2CCN(CCCOc3ccc(-c4nc5ccccc5o4)cc3)CC2)nc1,< 5.00
10,Fc1ccc2c(C3CCN(CCCOc4ccc(CCc5nc6ccccc6o5)cc4)CC3)noc2c1,7.27

# Biological target: T1, 5-hydroxytryptamine receptor 1A (Rattus norvegicus, UniProt P19327)
# T1 sequence (P19327 whole entry): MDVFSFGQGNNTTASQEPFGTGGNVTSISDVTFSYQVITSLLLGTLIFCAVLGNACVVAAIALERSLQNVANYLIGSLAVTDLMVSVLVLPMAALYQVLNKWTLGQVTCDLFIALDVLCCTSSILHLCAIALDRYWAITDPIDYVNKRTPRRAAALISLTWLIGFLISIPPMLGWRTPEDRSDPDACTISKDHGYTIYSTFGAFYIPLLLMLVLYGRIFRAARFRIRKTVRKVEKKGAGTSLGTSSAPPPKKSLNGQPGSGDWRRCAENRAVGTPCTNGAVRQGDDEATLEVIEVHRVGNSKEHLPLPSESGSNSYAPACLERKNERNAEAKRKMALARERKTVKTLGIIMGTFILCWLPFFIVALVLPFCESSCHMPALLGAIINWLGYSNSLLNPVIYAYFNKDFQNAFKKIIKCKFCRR
# Test: Displacement of [3H]8-OH-DPAT from 5-HT1A receptor in rat cerebral cortex homogenates after 60 mins by liquid scintillation counting
# Assay type: tissue-based
# Conditions: not given
row,Structure (SMILES),pKi
1,c1ccc2oc(-c3ccc(OCCCN4CCN(c5nsc6ccccc56)CC4)cc3)nc2c1,6.01
2,Clc1cccc(N2CCN(CCCOc3ccc(-c4nc5ccccc5o4)cc3)CC2)c1Cl,< 5.00
3,O=C(c1ccc(F)cc1F)C1CCN(CCCOc2ccc(-c3nc4ccccc4o3)cc2)CC1,6.94
4,c1ccc2oc(-c3ccc(OCCCN4CCC(c5nc6ccccc6o5)CC4)cc3)nc2c1,6.25
5,Fc1ccc2c(C3CCN(CCCOc4cccc(-c5nc6ccccc6o5)c4)CC3)noc2c1,< 5.00
6,Cc1ccc2oc(-c3ccc(OCCCN4CCC(c5noc6cc(F)ccc56)CC4)cc3)nc2c1,7.12
7,Fc1ccc2c(C3CCN(CCCCOc4ccc(-c5nc6ccccc6o5)cc4)CC3)noc2c1,6.00
8,Fc1ccc2c(C3CCN(CCCOc4ccc(-c5nc6cc(Cl)ccc6o5)cc4)CC3)noc2c1,< 5.00
9,c1ccc(N2CCN(CCCOc3ccc(-c4nc5ccccc5o4)cc3)CC2)nc1,5.70
10,Fc1ccc2c(C3CCN(CCCOc4ccc(CCc5nc6ccccc6o5)cc4)CC3)noc2c1,7.51

# Biological target: 5-hydroxytryptamine receptor 2A (Rattus norvegicus, UniProt P14842)
# Sequence (P14842 whole entry): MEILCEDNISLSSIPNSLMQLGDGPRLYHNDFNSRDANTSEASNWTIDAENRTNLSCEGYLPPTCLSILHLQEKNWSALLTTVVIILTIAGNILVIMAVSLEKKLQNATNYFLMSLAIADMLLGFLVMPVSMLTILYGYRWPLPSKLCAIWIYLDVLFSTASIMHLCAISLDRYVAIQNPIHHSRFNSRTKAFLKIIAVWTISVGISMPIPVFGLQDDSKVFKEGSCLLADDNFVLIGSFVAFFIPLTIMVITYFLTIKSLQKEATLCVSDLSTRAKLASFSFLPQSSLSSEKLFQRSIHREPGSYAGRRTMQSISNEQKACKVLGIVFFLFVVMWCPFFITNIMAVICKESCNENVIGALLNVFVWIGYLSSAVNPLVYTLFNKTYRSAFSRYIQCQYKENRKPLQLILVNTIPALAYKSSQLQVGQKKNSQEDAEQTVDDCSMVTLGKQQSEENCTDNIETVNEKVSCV
# Test: Displacement of [3H]ketanserine from 5-HT2A receptor in rat cerebral cortex homogenates after 60 mins by liquid scintillation counting
# Assay type: tissue-based
# Conditions: not given
row,Structure (SMILES),pKi
1,c1ccc2oc(-c3ccc(OCCCN4CCN(c5nsc6ccccc56)CC4)cc3)nc2c1,7.77
2,Clc1cccc(N2CCN(CCCOc3ccc(-c4nc5ccccc5o4)cc3)CC2)c1Cl,5.54
3,O=C(c1ccc(F)cc1F)C1CCN(CCCOc2ccc(-c3nc4ccccc4o3)cc2)CC1,6.70
4,c1ccc2oc(-c3ccc(OCCCN4CCC(c5nc6ccccc6o5)CC4)cc3)nc2c1,6.61
5,Fc1ccc2c(C3CCN(CCCOc4cccc(-c5nc6ccccc6o5)c4)CC3)noc2c1,< 5.00
6,Cc1ccc2oc(-c3ccc(OCCCN4CCC(c5noc6cc(F)ccc56)CC4)cc3)nc2c1,< 5.00
7,Fc1ccc2c(C3CCN(CCCCOc4ccc(-c5nc6ccccc6o5)cc4)CC3)noc2c1,6.14
8,Fc1ccc2c(C3CCN(CCCOc4ccc(-c5nc6cc(Cl)ccc6o5)cc4)CC3)noc2c1,6.87
9,c1ccc(N2CCN(CCCOc3ccc(-c4nc5ccccc5o4)cc3)CC2)nc1,5.63
10,Fc1ccc2c(C3CCN(CCCOc4ccc(CCc5nc6ccccc6o5)cc4)CC3)noc2c1,7.42

# Biological target: Voltage-gated inwardly rectifying potassium channel KCNH2 (Homo sapiens, UniProt Q12809)
# Sequence (Q12809 whole entry): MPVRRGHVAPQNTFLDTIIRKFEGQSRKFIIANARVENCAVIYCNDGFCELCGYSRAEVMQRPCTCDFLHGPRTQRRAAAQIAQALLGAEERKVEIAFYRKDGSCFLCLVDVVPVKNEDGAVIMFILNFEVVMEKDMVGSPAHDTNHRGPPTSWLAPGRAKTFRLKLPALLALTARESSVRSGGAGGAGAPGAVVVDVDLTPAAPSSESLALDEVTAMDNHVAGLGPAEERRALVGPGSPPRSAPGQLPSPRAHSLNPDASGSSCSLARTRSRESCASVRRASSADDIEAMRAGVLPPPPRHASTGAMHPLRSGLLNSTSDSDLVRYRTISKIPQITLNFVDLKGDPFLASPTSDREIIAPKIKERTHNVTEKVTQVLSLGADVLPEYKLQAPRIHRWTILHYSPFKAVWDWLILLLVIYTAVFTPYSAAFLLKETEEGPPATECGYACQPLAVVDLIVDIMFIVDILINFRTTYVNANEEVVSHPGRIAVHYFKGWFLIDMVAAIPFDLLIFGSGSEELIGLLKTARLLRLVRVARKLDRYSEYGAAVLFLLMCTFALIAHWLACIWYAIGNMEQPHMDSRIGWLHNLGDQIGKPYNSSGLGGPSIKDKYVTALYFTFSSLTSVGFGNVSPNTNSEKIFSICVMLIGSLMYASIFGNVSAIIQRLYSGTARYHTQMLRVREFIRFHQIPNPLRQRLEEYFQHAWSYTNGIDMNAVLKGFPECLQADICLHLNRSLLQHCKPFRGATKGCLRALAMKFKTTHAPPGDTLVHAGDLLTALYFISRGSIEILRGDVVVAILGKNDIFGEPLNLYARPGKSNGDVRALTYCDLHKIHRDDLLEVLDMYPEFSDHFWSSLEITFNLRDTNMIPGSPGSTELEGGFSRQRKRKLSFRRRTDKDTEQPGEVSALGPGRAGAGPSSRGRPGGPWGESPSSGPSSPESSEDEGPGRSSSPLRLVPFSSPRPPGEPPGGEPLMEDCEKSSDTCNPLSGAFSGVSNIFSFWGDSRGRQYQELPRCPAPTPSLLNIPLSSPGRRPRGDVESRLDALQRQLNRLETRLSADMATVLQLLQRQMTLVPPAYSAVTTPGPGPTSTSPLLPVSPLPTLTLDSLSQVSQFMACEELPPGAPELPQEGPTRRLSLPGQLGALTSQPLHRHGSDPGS
# Test: Inhibition of human ERG expressed in HEK293 cells by whole-cell patch clamp method
# Assay type: cell-based
# Conditions: not given
row,Structure (SMILES),pIC50
1,Fc1ccc2c(C3CCN(CCCOc4ccc(CCc5nc6ccccc6o5)cc4)CC3)noc2c1,6.20

# System: Mus musculus
# Test: Antipsychotic activity in po dosed Chinese Kun Ming mouse assessed as inhibition of apomorphine-induced climbing administered 30 mins before apomorphine challenge measured up to 30 mins
# Assay type: functional
# Conditions: not given
row,Structure (SMILES),ED50 [mg/kg]
1,CN1CCN(C2=Nc3cc(Cl)ccc3Nc3ccccc32)CC1 [CLOZAPINE],3.51
2,Cc1nc2n(c(=O)c1CCN1CCC(c3noc4cc(F)ccc34)CC1)CCCC2 [RISPERIDONE],0.034

# System: Mus musculus
# Test: Antipsychotic activity in po dosed Chinese Kun Ming mouse assessed as inhibition of DOI-induced head twitch administered 60 mins before DOI challenge measured up to 15 mins
# Assay type: functional
# Conditions: not given
row,Structure (SMILES),ED50 [mg/kg]
1,CN1CCN(C2=Nc3cc(Cl)ccc3Nc3ccccc32)CC1 [CLOZAPINE],4.92
2,Cc1nc2n(c(=O)c1CCN1CCC(c3noc4cc(F)ccc34)CC1)CCCC2 [RISPERIDONE],0.045

# System: Mus musculus
# Test: Toxicity in po dosed Chinese Kun Ming mouse assessed as induction of catalepsy by measuring immobility score of 30 seconds administered 30 mins before first assessment
# Assay type: organism-based
# Conditions: in vivo, 0.5 h
row,Structure (SMILES),ED50 [mg/kg]
1,CN1CCN(C2=Nc3cc(Cl)ccc3Nc3ccccc32)CC1 [CLOZAPINE],50.5
2,Cc1nc2n(c(=O)c1CCN1CCC(c3noc4cc(F)ccc34)CC1)CCCC2 [RISPERIDONE],1.3

# System: Mus musculus
# Test: Neurotoxicity in Chinese Kun Ming mouse assessed as locomotor activity by measuring total distance traveled at 1 mg/kg, po administered 1 hr before test measured for 10 mins (reference value: 13881.4 +/- 8595.8 millimeter)
# Assay type: toxicity, organism-based
# Conditions: in vivo
row,Structure (SMILES),Activity [mm]
1,O=C1CN=C(c2ccccc2Cl)c2cc([N+](=O)[O-])ccc2N1 [CLONAZEPAM],13188.4

# System: Mus musculus
# Test: Neurotoxicity in Chinese Kun Ming mouse assessed as locomotor activity by measuring total distance traveled at 3 mg/kg, po administered 1 hr before test measured for 10 mins (reference value: 13881.4 +/- 8595.8 millimeter)
# Assay type: toxicity, organism-based
# Conditions: in vivo
row,Structure (SMILES),Activity [mm]
1,O=C1CN=C(c2ccccc2Cl)c2cc([N+](=O)[O-])ccc2N1 [CLONAZEPAM],4784.1

# System: Mus musculus
# Test: Neurotoxicity in Chinese Kun Ming mouse assessed as locomotor activity by measuring total distance traveled at 10 mg/kg, po administered 1 hr before test measured for 10 mins (reference value: 13881.4 +/- 8595.8 millimeter)
# Assay type: toxicity, organism-based
# Conditions: in vivo
row,Structure (SMILES),Activity [mm]
1,O=C1CN=C(c2ccccc2Cl)c2cc([N+](=O)[O-])ccc2N1 [CLONAZEPAM],655.7

# System: Mus musculus
# Test: Neurotoxicity in Chinese Kun Ming mouse assessed as locomotor activity by measuring total distance traveled at 0.1 mg/kg, po administered 1 hr before test measured for 10 mins (reference value: 13415.6 +/- 9555.8 millimeter)
# Assay type: toxicity, organism-based
# Conditions: in vivo
row,Structure (SMILES),Activity [mm]
1,O=C(CCCN1CCC(O)(c2ccc(Cl)cc2)CC1)c1ccc(F)cc1 [HALOPERIDOL],8980.9

# System: Mus musculus
# Test: Neurotoxicity in Chinese Kun Ming mouse assessed as locomotor activity by measuring total distance traveled at 0.3 mg/kg, po administered 1 hr before test measured for 10 mins (reference value: 13415.6 +/- 9555.8 millimeter)
# Assay type: toxicity, organism-based
# Conditions: in vivo
row,Structure (SMILES),Activity [mm]
1,O=C(CCCN1CCC(O)(c2ccc(Cl)cc2)CC1)c1ccc(F)cc1 [HALOPERIDOL],3580.6

# System: Mus musculus
# Test: Neurotoxicity in Chinese Kun Ming mouse assessed as locomotor activity by measuring total distance traveled at 1 mg/kg, po administered 1 hr before test measured for 10 mins (reference value: 13415.6 +/- 9555.8 millimeter)
# Assay type: toxicity, organism-based
# Conditions: in vivo
row,Structure (SMILES),Activity [mm]
1,O=C(CCCN1CCC(O)(c2ccc(Cl)cc2)CC1)c1ccc(F)cc1 [HALOPERIDOL],744.5

# System: not listed separately
# Test: Acute toxicity in Sprague-Dawley rat
# Assay type: organism-based
# Conditions: in vivo
row,Structure (SMILES),LD50 [mg/kg]
1,O=C(c1ccc(F)cc1F)C1CCN(CCCOc2ccc(-c3nc4ccccc4o3)cc2)CC1,369
2,Fc1ccc2c(C3CCN(CCCOc4ccc(CCc5nc6ccccc6o5)cc4)CC3)noc2c1,398
